According to patent US10047107B2, “Small molecule analogs of E4orf1” (BOARD OF SUPERVISORS OF LOUISIANA STATE UNIVERSITY AND …, priority 2014, dated 2018):

Each compound was assayed on 3T3-L1 pre-adipocytes (assay: Glucose uptake (2-deoxy glucose uptake) by 3T3-L1 pre-adipocytes). Conditions: 5 μM compound, 24 hours exposure, 3T3-L1 pre-adipocytes, basal conditions, without serum starvation, 2-DG uptake.
Format: cell-based
Procedure: Glucose uptake by 3T3-L1 cells exposed to compounds 1-11 was determined at 5 μM concentration. Cells were exposed to compounds 1-11 for 24 hours and exposure to DMSO was used as the control group. 2-Deoxy glucose (2-DG) uptake was determined using the analog compounds without serum starving the cells prior to determining glucose uptake. Glucose uptake in 3T3-L1 pre-adipocytes was determined by exposing cells to compounds 1-11 for 24 hours without serum starvation. P values presented in the Table indicate statistical significance (p<0.05).

Structure (SMILES)	Percent increase in glucose uptake in comparison to DMSO treated Control
N#CC(Nc1ccc([B-](F)(F)F)cc1)c1ccc(O)cc1.[K+] (centres unmarked) [Example 2, Potassium (4-((cyano(4-hydroxyphenyl)methyl)amino)phenyl)trifluoroborate]	No increase
COc1cc(C(C#N)Nc2ccc([B-](F)(F)F)cc2)cc(OC)c1OC.[K+] (centres unmarked) [Example 8, Potassium (4-((cyano(3,4,5-trimethoxyphenyl)methyl)amino)phenyl) trifluoroborate]	43%
N#CC(Nc1ccc([B-](F)(F)F)cc1)c1ccc([B-](F)(F)F)cc1.[K+].[K+] (centres unmarked) [Example 11]	53%

Same assay, conditions: Mus musculus, 3T3-L1, 24 h, read-out: Percent increase in glucose uptake in comparison to DMSO treated Control

Structure (SMILES)	activation at 5 µM
N#CC(Nc1ccc([B-](F)(F)F)cc1)c1cccnc1 (centres unmarked) [Example 9, Potassium (4-((cyano(pyridin-3-yl)methyl)amino)phenyl)trifluoroborate]	54%
N#CC(Nc1ccc(O)cc1)c1ccc([B-](F)(F)F)cc1 (centres unmarked) [Example 10, Potassium (4-(cyano((4-hydroxyphenyl)amino)methyl)phenyl)trifluoroborate]	31%

Same assay, conditions: Mus musculus; 5 μM compound, 24 hours exposure, 3T3-L1 pre-adipocytes, basal conditions, without serum starvation, 2-DG uptake; read-out: Percent increase in glucose uptake in comparison to DMSO treated Control

Structure (SMILES)	activation at 5 µM
CC1(C)OB(c2ccc(C(C#N)Nc3ccc(O)cc3)cc2)OC1(C)C (centres unmarked) [Example 5, 2-((4-hydroxyphenyl)amino)-2-(4-(4,4,5,5-tetramethyl-1,3,2-dioxaborolan-2-yl)phenyl)acetonitrile]	73%
CC1=C(C(C#N)Nc2ccc(B3OC(C)(C)C(C)(C)O3)cc2)C(C)(C)CCC1 (centres unmarked) [Example 4, 2-((4-(4,4,5,5-tetramethyl-1,3,2-dioxaborolan-2-yl)phenyl)amino)-2-(2,6,6-trimethylcyclohex-1-en-1-yl)acetonitrile]	33%
CC1(C)OB(c2ccc(NC(C#N)c3ccc(O)cc3)cc2)OC1(C)C (centres unmarked) [Example 1, 2-(4-hydroxyphenyl)-2-((4-(4,4,5,5-tetramethyl-1,3,2-dioxaborolan-2-yl)phenyl)amino)acetonitrile]	24%
CC1(C)OB(c2ccc(NC(C#N)c3cccnc3)cc2)OC1(C)C (centres unmarked) [Example 3, 2-(pyridin-3-yl)-2-((4-(4,4,5,5-tetramethyl-1,3,2-dioxaborolan-2-yl)phenyl)amino)acetonitrile]	9%
CC1(C)OB(c2ccc(NC(C#N)c3ccc(B4OC(C)(C)C(C)(C)O4)cc3)cc2)OC1(C)C (centres unmarked) [Example 6, 2-(4-(4,4,5,5-tetramethyl-1,3,2-dioxaborolan-2-yl)phenyl)-2-((4-(4,4,5,5-tetramethyl-1,3,2-dioxaborolan-2-yl)phenyl)amino)acetonitrile]	17%
COc1cc(C(C#N)Nc2ccc(B3OC(C)(C)C(C)(C)O3)cc2)cc(OC)c1OC (centres unmarked) [Example 7, 2-((4-(4,4,5,5-tetramethyl-1,3,2-dioxaborolan-2-yl)phenyl)amino)-2-(3,4,5-trimethoxyphenyl)acetonitrile]	41%
